How the values were obtained:
[1] = storage stability after processing via suspensions; assay type: physicochemical; conditions: crystalline salt, even after processing via suspensions
[2] = for some applications; suitability for use in formulations

SMILES | storage stability [1] | solubility [2]
Cn1c(=O)oc2cc(-n3cc(C(=O)O)c(=O)n([C@@H]4CCc5c4cccc5C(F)(F)F)c3=O)ccc21.NCCCC[C@H](N)C(=O)O [L-lysine salt, L-lysine salt of 1-(3-methyl-2-oxo-2,3-dihydro-1,3-benzoxazol-6-yl)-2,4-dioxo-3-[(1R)-4-(trifluoromethyl)-2,3-dihydro-1H-inden-1-yl]-1,2,3,4-tetrahydropyrimidine-5-carboxylic acid] | storage-stable | –
Cn1c(=O)oc2cc(-n3cc(C(=O)O)c(=O)n([C@@H]4CCc5c4cccc5C(F)(F)F)c3=O)ccc21 [free acid, 1-(3-Methyl-2-oxo-2,3-dihydro-1,3-benzoxazol-6-yl)-2,4-dioxo-3-[(1R)-4-(trifluoromethyl)-2,3-dihydro-1H-inden-1-yl]-1,2,3,4-tetrahydropyrimidine-5-carboxylic acid] | – | insufficient solubility
Cn1c(=O)oc2cc(-n3cc(C(=O)[O-])c(=O)n([C@@H]4CCc5c4cccc5C(F)(F)F)c3=O)ccc21.[K+] [potassium salt, potassium salt of 1-(3-methyl-2-oxo-2,3-dihydro-1,3-benzoxazol-6-yl)-2,4-dioxo-3-[(1R)-4-(trifluoromethyl)-2,3-dihydro-1H-inden-1-yl]-1,2,3,4-tetrahydropyrimidine-5-carboxylic acid] | storage-stable | –
Cn1c(=O)oc2cc(-n3cc(C(=O)[O-])c(=O)n([C@@H]4CCc5c4cccc5C(F)(F)F)c3=O)ccc21.[Na+] [sodium salt, sodium salt of 1-(3-methyl-2-oxo-2,3-dihydro-1,3-benzoxazol-6-yl)-2,4-dioxo-3-[(1R)-4-(trifluoromethyl)-2,3-dihydro-1H-inden-1-yl]-1,2,3,4-tetrahydropyrimidine-5-carboxylic acid] | storage-stable | –
